Data on 1 compound can be found in PMC6938345, “Inhibition of complement activation, myeloperoxidase, NET formation and oxidant activity by PIC1 peptide variants” (PLoS ONE, 2019).

SMILES strings stand for the structures.

Data set [1] in a line: Peptide solubility in water.
Data set [2] relates to antibody-initiated complement activation (type O sera + type AB red blood cells). Briefly: ABO incompatibility hemolytic assay (CH50-type, ex vivo). In kind it is cell-based, human. Particulars: peptides 1.8 mM. On the procedure:
(§1) For hemolytic complement assays, human red blood cells (RBCs) from type AB donors were purified, washed and standardized to 1 × 10^9 cells/ml, as previously described. Human sera from type O donors at a 20% final concentration was combined with 1 mM PIC1 or sarcosine variant peptides and the volume was brought up to 0.15 ml with GVBS^++ and 0.5 ml RBCs. For factor B-depleted sera hemolytic assays, a final of 0.005% factor B depleted sera was incubated with 1 mM PIC1 or sarcosine variant peptides with 0.1 ml antibody-sensitized sheep red blood cells (EA) in a final volume of 0.75 ml GVBS^++. The samples were incubated for 1 hour at 37 °C and then 1.0 ml of GVBS^-—was added to the factor B-depleted samples to stop the reaction. The samples were spun at 3,000 rpm for 5 minutes and the supernatant was collected and read at 412 nm. Values are represented as a percent of the positive control, which consists of human O sera and AB red blood cells in GVBS^++ buffer.
In order to evaluate the extent to which the peptide variants inhibit antibody-initiated complement activation, we tested them in two hemolytic assays including an ABO incompatibility ex vivo assay (Fig 1A) and a classical pathway CH50-type assay in factor B-depleted sera (Fig 1B). In the ABO incompatibility hemolytic assay, purified erythrocytes from a ‘type AB+’ donor are incubated with sera from a ‘type O’ subject containing anti-A and anti-B antibodies; peptides were tested at 1.8 mM. […] We then performed a CH50-type hemolytic assay, with antibody-sensitized sheep erythrocytes, isolating the classical pathway by utilizing factor B-depleted sera; peptides were tested at 0.4 mM.
Fig 1 Sarcosine variant inhibition of complement activation in hemolytic assays and C1q binding. A) Inhibition of ABO incompatibility hemolysis in a CH50-type assay. Peptides are at a final concentration of 1.8 mM. […] Data are the means of n = 4 independent experiments + SEM. B) Inhibition of classical complement pathway-mediated hemolysis in factor B-depleted sera in a CH50-type assay. Peptides are at a final concentration of 0.4 mM. Data are the means of n = 4 independent experiments + SEM. C) Binding of increasing concentrations of sarcosine variants to purified C1q in an ELISA-type assay. Data are the means of n = 3 independent experiments ± SEM. D) Half-maximal binding concentrations were calculated for each peptide’s binding curve.

For data set [3], the system named is classical complement pathway (factor B-depleted human sera + antibody-sensitized sheep erythrocytes). As to the kind of experiment: Classical pathway CH50-type hemolytic assay in factor B-depleted sera. In kind it is cell-based. Particulars: peptides 0.4 mM, P < 0.001. As for the experimental part:
as §1, with “buffer. […]” for “buffer.”
Fig 1 Sarcosine variant inhibition of complement activation in hemolytic assays and C1q binding. […] D) Half-maximal binding concentrations were calculated for each peptide’s binding curve.

The target in the next data set is T1, MPO heme ring (Homo sapiens, UniProt P05164).
T1 construct: purchased Lee BioSolutions (Maryland Heights, MO)
T1 sequence (P05164 49-745): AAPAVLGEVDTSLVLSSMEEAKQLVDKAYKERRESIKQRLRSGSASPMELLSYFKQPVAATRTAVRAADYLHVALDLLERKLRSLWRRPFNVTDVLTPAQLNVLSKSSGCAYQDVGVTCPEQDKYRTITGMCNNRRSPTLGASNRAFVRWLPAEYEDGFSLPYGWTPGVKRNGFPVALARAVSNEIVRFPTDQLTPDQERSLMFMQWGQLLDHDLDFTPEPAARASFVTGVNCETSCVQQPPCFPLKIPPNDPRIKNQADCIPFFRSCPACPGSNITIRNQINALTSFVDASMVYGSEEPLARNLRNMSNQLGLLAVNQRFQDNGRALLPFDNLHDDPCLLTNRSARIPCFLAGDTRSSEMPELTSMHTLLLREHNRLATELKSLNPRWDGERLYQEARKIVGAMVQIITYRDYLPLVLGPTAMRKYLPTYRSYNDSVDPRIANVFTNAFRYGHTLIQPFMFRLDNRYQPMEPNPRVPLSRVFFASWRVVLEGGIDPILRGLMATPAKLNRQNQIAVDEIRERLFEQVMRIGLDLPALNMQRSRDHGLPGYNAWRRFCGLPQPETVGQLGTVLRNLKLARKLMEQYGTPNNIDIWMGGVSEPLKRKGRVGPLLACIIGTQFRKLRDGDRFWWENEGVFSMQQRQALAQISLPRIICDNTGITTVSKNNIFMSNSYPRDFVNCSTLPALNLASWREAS
As to the kind of experiment: MPO heme ring oxidative degradation. In kind it is biochemical. As to conditions: peptides 3.0 mM, H2O2, absorbance 300-550 nm. On the procedure:
In a 96 well plate, 0.025 ml of 1.7 mg/ml MPO was combined with 0.00125 ml of 0.5% H2O2 and 3 mM PIC1 or sarcosine variant peptides in a total volume of 0.125 ml PBS and left to incubate at room temperature for 2 minutes. Using a 96 well plate reader, the wells were scanned for absorbance from 300–550 nm to generate curves reflecting the iron state in the MPO heme ring, as previously reported.
We then evaluated the ability of the variants to prevent degradation of the heme ring in the MPO molecule. […] This can be evaluated via spectrometric measurements of absorption of wavelengths from 300–550 nm. Absorption measurements were made over this spectrum for all variants (Fig 3A–3H). […] The heme ring preservation for these two variants was greater than that for the parent compound, PA-dPEG24.
Fig 3 Sarcosine variant protection of MPO heme ring from oxidative degradation. Absorbance spectra for the heme ring is shown in the absence of hydrogen peroxide (MPO) in red, in the presence of hydrogen peroxide (MPO+H2O2) in black, in the presence of peptide in blue, and in the presence of hydrogen peroxide and peptide together in green. […] B-H) Peptides A2 – C9,10 are denoted in the legends. Peptides were tested at a concentration of 3.0 mM.

Data set [4] is described as follows: Total Antioxidant Capacity (TAC) assay. As for the experimental part: The TAC (Total Antioxidant Capacity) Assay (Cell Biolabs, Inc, San Diego, CA) was used to measure the antioxidant capacity of the sarcosine variants based on the reduction of copper (II) to copper (I). The kit protocol was performed as recommended.
Antioxidant activity is measured in copper reducing equivalents (CRE). Peptides were tested over a range of concentrations from 0.03–0.25 mM then compared to the standard. Data are the means of n = 3 independent experiments + SEM.

Take `CC[C@H](C)[C@H](N)C(=O)N[C@@H](C)C(=O)N[C@@H](CC(C)C)C(=O)N[C@H](C(=O)N[C@@H](CC(C)C)C(=O)N[C@@H](CCC(=O)O)C(=O)N1CCC[C@H]1C(=O)N(C)CC(=O)N[C@@H](CS)C(=O)N[C@@H](CS)C(=O)N[C@@H](CCC(N)=O)C(=O)N[C@@H](CCC(=O)O)C(=O)N[C@@H](CCCNC(=N)N)C(=O)N[C@@H](C)C(=O)N[C@@H](C)C(=O)O)[C@@H](C)CC` [I8]: the “solubility in water (in words)” value in data set [1] is listed as “soluble in water”. In addition, the ABO hemolysis in data set [2] (Avg of n = 4, concentration basis of PIC1 not stated) is 13.50 % of Control. Also, the “inhibition of ABO incompatible hemolysis (in words)” value in data set [2] is given as “to a greater extent than did the PA-dPEG24”. For the same compound, the “decrease of ABO hemolysis more than PA-dPEG24” value in data set [2] (equimolar basis, P < 0.002) came out at 53%. Moreover, in data set [3], the “inhibition of hemolysis more than PA-dPEG24” value is on record as 75%. Besides, the “protection of MPO heme ring from degradation (in words)” value at MPO heme ring is “near perfect preservation”. In data set [4] (Avg of n = 3), the “TAC assay, antioxidant activity” value is listed as 1239.37 copper reducing equivalents (CRE). The “antioxidant capacity (in words)” value in data set [4] (TAC assay) is listed as “approaching that of PA-dPEG24”.
